Values quoted from earlier work in patent US8617624B2, “Compositions, systems and methods for the diagnosis, prevention and treatment of disorders associated with azetidine-2-carboxylic acid” (priority 2006, dated 2013).

Key:
[1] = tested on: pigs
[2] = tested on: pregnant mice; conditions: fed to pregnant mice
[3] = tested on: hamsters; conditions: exposure during pregnancy in hamsters

SMILES	effect on wound healing [1]	teratogenic effect [2]	teratogenic effect [3]	increase in plasma proline concentration (1 mmol proline/kg lean body mass)	plasma proline increase when glucose also ingested (1 mmol proline/kg lean body mass with about 25 g of glucose)	absorption of proline (ingestion)
O=C(O)C1CCN1 (stereo not drawn) [Aze, Azetidine-2-carboxylic acid]	delayed wound healing	predisposes to cleft palate	fetal weight abnormalities, tissue hemorrhages, cleft palate, retarded ossifications, and shortened bones	–	–	–
O=C(O)[C@@H]1CCCN1 [proline]	–	–	–	approximately 13 fold	decreased by half	readily absorbed
